Results taken from EP4310072A1, “ULTRAVIOLET ABSORBER, COMPOSITION, COSMETIC PRODUCT, AND PROCESS FOR PREPARING COSMETIC PRODUCT” (MFCI (Huanggang) Co., Ltd., priority 2021, dated 2023).

Assays:
Format in all cases: physicochemical
[1] = Second dissolution experiment: sample stirred into the oil phase of an SPF 25 sunscreen oil, 6% DHHB; details: for increase rate of dissolution time: added concentration 6% versus 3%; for Sample dissolution time: added concentration 6%, 25°C, stirring rate 150 r/min, oil phase
Experimental: (§1) In this dissolution experiment, the agglomeration degree of the ultraviolet absorbers in the above examples and comparative examples was evaluated, and each sample of a certain mass was added into an oil phase and stirred at room temperature (25°C) at a stirring rate of 150 r/min for dissolution. The dissolution experiment was carried out on raw materials for preparation of a sunscreen oil with an SPF value of 25. Table 15 Raw material table
Except that DHHB is a solid, all other components are liquid oils. A production process includes: sequentially adding various components into an oil pot, and enabling a stirring function until the components are completely dissolved. Table 16 Sample property test result table

[2] = Particle size testing by laser diffraction (Malvern MS2000 laser particle size analyzer, dispersant water); details: for αd5: Vd5/Vd100, distribution coefficient of particles with a particle size of 5 µm; for αd10: Vd10/Vd100, distribution coefficient of 10 µm particles; for Consistency / Span (β) / Specific surface area / Surface area-average particle size D[3,2] / Volume-average particle size D[4,3]: laser diffraction, dispersant water; for d(0.9): maximum particle size, cumulative distribution 90%; for d(0.5): median particle size, cumulative distribution 50%; for d(0.1): minimum particle size, cumulative distribution 10%; for Particle size distribution d(0.9) (integer) / Particle size distribution d(0.1) (integer): rounded to integer, Tables 14 and 16
Experimental: The particle size distribution and characteristics of the ultraviolet absorber described herein, such as the minimum particle size d(0.1), the d(0.9) and the consistency are determined by a laser diffraction method, and determination conditions are as follows: • particle size analyzer: Malvern MS2000 laser particle size analyzer; • name of an injector: Hydro 2000MU (A); • analysis mode: general; • particle size range: 0.02-2000 µm; • name of a dispersant: water.

[3] = First dissolution experiment: sample stirred into the oil phase of an SPF 25 sunscreen oil, 3% DHHB; details: added concentration 3%, 25°C, stirring rate 150 r/min
Experimental: as §1, with “with a sun protection factor (SPF)” for “with an SPF”, “Table 13” for “Table 15”
Except that DHHB is a solid, all other components are liquid oils. A production process includes: sequentially adding various components into an oil pot, and enabling a stirring function until the components are completely dissolved. Table 14 Sample property test result table

Compound: CCCCCCOC(=O)c1ccccc1C(=O)c1ccc(N(CC)CC)cc1O [Comparative Example 1]
- increase rate of dissolution time [1]: about 38%
- Sample dissolution time [1]: 208 min
- difference between D[3,2] and D[4,3] [2]: 128.616 µm
- αd5 [2]: 0.005
- αd10 [2]: 0.122
- Consistency [2]: 2.44
- Span (β) [2]: 10.995
- Specific surface area [2]: 0.258 m^2/g
- Surface area-average particle size D[3,2] [2]: 23.263 µm
- Volume-average particle size D[4,3] [2]: 151.879 µm
- d(0.9) [2]: 518.950 µm
- d(0.5) [2]: 51.970 µm
- d(0.1) [2]: 10.517 µm
- Particle size distribution d(0.9) (integer) [2]: 519 µm
- Particle size distribution d(0.1) (integer) ([2]; in µm): 11
- Sample dissolution time [3]: 151 min

Compound: CCCCCCOC(=O)c1ccccc1C(=O)c1ccc(N(CC)CC)cc1O [Comparative Example 2, reference compound]
- increase rate of dissolution time [1]: about 50%
- Sample dissolution time [1]: 202 min
- Particle size distribution d(0.1) (integer) [2]: 850 (±20)
- Particle size distribution d(0.9) (integer) [2]: 1000 µm
- Sample dissolution time [3]: 134 min

Compound: CCCCCCOC(=O)c1ccccc1C(=O)c1ccc(N(CC)CC)cc1O [Example 1, 2-(4-N,N-diethylamino-2-hydroxybenzoyl) hexyl benzoate]
- difference between D[3,2] and D[4,3] [2]: 11.727 µm
- αd5 [2]: 0.0160
- αd10 [2]: 0.111
- Consistency [2]: 0.638
- Span (β) [2]: 2.008
- Specific surface area [2]: 0.331 m^2/g
- Surface area-average particle size D[3,2] [2]: 18.113 µm
- Volume-average particle size D[4,3] [2]: 29.840 µm
- d(0.9) [2]: 57.575 µm
- d(0.5) [2]: 23.866 µm
- d(0.1) [2]: 9.647 µm
- Particle size distribution d(0.9) (integer) [2]: 58 µm

Compound: CCCCCCOC(=O)c1ccccc1C(=O)c1ccc(N(CC)CC)cc1O [Example 2, 2-(4-N,N-diethylamino-2-hydroxybenzoyl) hexyl benzoate]
- Sample dissolution time [1]: < 5 min
- difference between D[3,2] and D[4,3] [2]: 8.865 µm
- αd5 [2]: 0.006
- αd10 [2]: 0.104
- Consistency [2]: 0.578
- Span (β) [2]: 1.869
- Specific surface area [2]: 0.325 m^2/g
- Surface area-average particle size D[3,2] [2]: 18.463 µm
- Volume-average particle size D[4,3] [2]: 27.328 µm
- d(0.9) [2]: 51.867 µm
- d(0.5) [2]: 22.470 µm
- d(0.1) [2]: 9.862 µm
- Particle size distribution d(0.9) (integer) [2]: 52 µm
- Particle size distribution d(0.1) (integer) ([2]; in µm): 10
- Sample dissolution time [3]: < 5 min

Compound: CCCCCCOC(=O)c1ccccc1C(=O)c1ccc(N(CC)CC)cc1O [Example 3, 2-(4-N,N-diethylamino-2-hydroxybenzoyl) hexyl benzoate]
- Sample dissolution time [1]: < 5 min
- difference between D[3,2] and D[4,3] [2]: 17.543 µm
- αd5 [2]: 0.019
- αd10 [2]: 0.107
- Consistency [2]: 0.691
- Span (β) [2]: 2.23
- Specific surface area [2]: 0.295 m^2/g
- Surface area-average particle size D[3,2] [2]: 20.356 µm
- Volume-average particle size D[4,3] [2]: 37.899 µm
- d(0.9) [2]: 77.626 µm
- d(0.5) [2]: 30.410 µm
- d(0.1) [2]: 9.803 µm
- Particle size distribution d(0.9) (integer) [2]: 78 µm
- Particle size distribution d(0.1) (integer) ([2]; in µm): 10
- Sample dissolution time [3]: < 5 min

Compound: CCCCCCOC(=O)c1ccccc1C(=O)c1ccc(N(CC)CC)cc1O [Example 4, 2-(4-N,N-diethylamino-2-hydroxybenzoyl) hexyl benzoate]
- Sample dissolution time [1]: < 5 min
- difference between D[3,2] and D[4,3] [2]: 11.215 µm
- αd5 [2]: 0.002
- αd10 [2]: 0.074
- Consistency [2]: 0.62
- Span (β) [2]: 1.998
- Specific surface area [2]: 0.284 m^2/g
- Surface area-average particle size D[3,2] [2]: 21.149 µm
- Volume-average particle size D[4,3] [2]: 32.364 µm
- d(0.9) [2]: 62.903 µm
- d(0.5) [2]: 25.939 µm
- d(0.1) [2]: 11.066 µm
- Particle size distribution d(0.9) (integer) [2]: 63 µm
- Particle size distribution d(0.1) (integer) ([2]; in µm): 11
- Sample dissolution time [3]: < 5 min

Compound: CCCCCCOC(=O)c1ccccc1C(=O)c1ccc(N(CC)CC)cc1O [Example 5, 2-(4-N,N-diethylamino-2-hydroxybenzoyl) hexyl benzoate]
- Sample dissolution time [1]: < 5 min
- difference between D[3,2] and D[4,3] [2]: 21.881 µm
- αd5 [2]: 0.037
- αd10 [2]: 0.095
- Consistency [2]: 0.596
- Span (β) [2]: 1.944
- Specific surface area [2]: 0.281 m^2/g
- Surface area-average particle size D[3,2] [2]: 21.390 µm
- Volume-average particle size D[4,3] [2]: 43.271 µm
- d(0.9) [2]: 43.271 µm
- d(0.5) [2]: 21.390 µm
- d(0.1) [2]: 10.747 µm
- Particle size distribution d(0.9) (integer) [2]: 43 µm
- Particle size distribution d(0.1) (integer) ([2]; in µm): 10
- Sample dissolution time [3]: < 5 min
